# In patent publication US9156801B2, “2-substituted oleanolic acid derivative, method preparing for same, and application thereof” (HANGZHOU BENSHENG PHARMACEUTICAL CO., LTD., priority 2011, dated 2015):
# What was measured:
# [1] = test system: Hep G2 cell line; assay: solid tumor cell growth inhibition, MTT; type: cell-based, human; conditions: Homo sapiens; for inhibition at 16 µg/mL: HepG2, 72 h, Hep G2, 16 μg/mL compound, 72 h, read-out: IR (cell proliferation inhibition rate); for IC50: HepG2, Hep G2, 72 h
# How it was run: (§1)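 A 72 h continuous exposure to the oleanolic acid derivatives at different concentrations followed a 24 h settling period for cells seeded at 4000 per well. Medium was DMEM high glucose with 10% FBS, 37° C, 5% CO2. Surviving cells were assessed by MTT.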
# [2] = test system: Kasumi-1 cell line; assay: leukemia cell growth inhibition, MTT; type: cell-based; conditions: Homo sapiens; for inhibition at 16 µg/mL: Kasumi-1, 16 μg/mL compound, 72 h, read-out: IR (cell proliferation inhibition rate); for IC50: Kasumi-1, 72 h
# How it was run: (§2)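 Proliferation inhibition rates derive from MTT-measured viability, normalised so the compound-free group equals 0%. Exposure lasted 72 hours at 37° C, 5% CO2, starting from 6000 cells/well in serum-supplemented (10% FBS) 1640 medium.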
# [3] = test system: K562/adr cell line; assay: leukemia cell growth inhibition, MTT; type: cell-based; conditions: Homo sapiens, 72 h; for IC50: K562/Adr; for inhibition at 16 µg/mL: K562/adr, 16 μg/mL compound, read-out: IR (cell proliferation inhibition rate)
# How it was run: as §2
# [4] = test system: NB4 cell line; assay: leukemia cell growth inhibition, MTT; type: cell-based; conditions: Homo sapiens, NB-4; for inhibition at 16 µg/mL: NB4, 16 μg/mL compound, 72 h, read-out: IR (cell proliferation inhibition rate); for IC50: NB4, 72 h
# How it was run: as §2
# [5] = test system: Jurkat cell line; assay: leukemia cell growth inhibition, MTT; type: cell-based; conditions: Homo sapiens, 72 h; for inhibition at 16 µg/mL: 16 μg/mL compound, read-out: IR (cell proliferation inhibition rate)
# How it was run: as §2
# [6] = test system: H9 cell line; assay: leukemia cell growth inhibition, MTT; type: cell-based; conditions: Homo sapiens; for IC50: H9, 72 h; for inhibition at 16 µg/mL: H9, 16 μg/mL compound, 72 h, read-out: IR (cell proliferation inhibition rate)
# How it was run: as §2
# [7] = test system: RPMI8226 cell line; assay: multiple myeloma cell growth inhibition, MTT; type: cell-based; conditions: Homo sapiens, RPMI-8226; for inhibition at 16 µg/mL: RPMI8226, 16 μg/mL compound, 72 h, read-out: IR (cell proliferation inhibition rate); for IC50: RPMI8226, 72 h
# How it was run: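 Viability was measured by MTT after a 72 h compound exposure (37° C, 5% CO2) of RPMI8226 myeloma cells seeded at 6000 per well in 1640 medium with 10% fetal bovine serum. Growth inhibition was expressed relative to untreated cells, taken as 0%.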
# [8] = test system: MG-63 cell line; assay: solid tumor cell growth inhibition, MTT; type: cell-based; conditions: Homo sapiens; for IC50: MG-63, 72 h; for inhibition at 16 µg/mL: MG-63, 16 μg/mL compound, 72 h, read-out: IR (cell proliferation inhibition rate)
# How it was run: as §1
# [9] = test system: Hela cell line; assay: solid tumor cell growth inhibition, MTT; type: cell-based; conditions: Homo sapiens, 72 h; for IC50: HeLa; for inhibition at 16 µg/mL: Hela, 16 μg/mL compound, read-out: IR (cell proliferation inhibition rate)
# How it was run: as §1
# [10] = test system: RKO cell line; assay: solid tumor cell growth inhibition, MTT; type: cell-based; conditions: Homo sapiens, 72 h; for inhibition at 16 µg/mL: 16 μg/mL compound, read-out: IR (cell proliferation inhibition rate)
# How it was run: as §1
# [11] = test system: PC-3 cell line; assay: solid tumor cell growth inhibition, MTT; type: cell-based; conditions: Homo sapiens; for IC50: PC-3, 72 h; for inhibition at 16 µg/mL: PC-3, 16 μg/mL compound, 72 h, read-out: IR (cell proliferation inhibition rate)
# How it was run: as §1
# [12] = test system: Hep-2 cell line; assay: solid tumor cell growth inhibition, MTT; type: cell-based; conditions: Homo sapiens; for IC50: HEp-2, 72 h; for inhibition at 16 µg/mL: Hep-2, 16 μg/mL compound, 72 h, read-out: IR (cell proliferation inhibition rate)
# How it was run: as §1
# [13] = test system: U87 MG cell line; assay: solid tumor cell growth inhibition, MTT; type: cell-based; conditions: Homo sapiens, U-87 MG, 72 h; for inhibition at 16 µg/mL: 16 μg/mL compound, read-out: IR (cell proliferation inhibition rate)
# How it was run: as §1
# [14] = test system: PANC-1 cell line; assay: solid tumor cell growth inhibition, MTT; type: cell-based; conditions: Homo sapiens; for IC50: PANC-1, 72 h; for inhibition at 16 µg/mL: PANC-1, 16 μg/mL compound, 72 h, read-out: IR (cell proliferation inhibition rate)
# How it was run: as §1
# [15] = test system: MGC 803 cell line; assay: solid tumor cell growth inhibition, MTT; type: cell-based; conditions: Homo sapiens; for inhibition at 16 µg/mL: MGC 803, 16 μg/mL compound, 72 h, read-out: IR (cell proliferation inhibition rate); for IC50: MGC 803, 72 h
# How it was run: as §1
# [16] = test system: CNE cell line; assay: solid tumor cell growth inhibition, MTT; type: cell-based; conditions: Homo sapiens, 72 h; for inhibition at 16 µg/mL: 16 μg/mL compound, read-out: IR (cell proliferation inhibition rate)
# How it was run: as §1
# [17] = test system: SK-OV-3 cell line; assay: solid tumor cell growth inhibition, MTT; type: cell-based; conditions: Homo sapiens; for IC50: SK-OV-3, 72 h; for inhibition at 16 µg/mL: SK-OV-3, 16 μg/mL compound, 72 h, read-out: IR (cell proliferation inhibition rate)
# How it was run: as §1
# [18] = test system: A549 cell line; assay: solid tumor cell growth inhibition, MTT; type: cell-based; conditions: Homo sapiens; for IC50: A549, 72 h; for inhibition at 16 µg/mL: A549, 16 μg/mL compound, 72 h, read-out: IR (cell proliferation inhibition rate)
# How it was run: as §1
# [19] = test system: CaES-17 cell line; assay: solid tumor cell growth inhibition, MTT; type: cell-based; conditions: Homo sapiens, CaEs17; for inhibition at 16 µg/mL: CaES-17, 16 μg/mL compound, 72 h, read-out: IR (cell proliferation inhibition rate); for IC50: CaES-17, 72 h
# How it was run: as §1
# [20] = test system: Becap37 cell line; assay: solid tumor cell growth inhibition, MTT; type: cell-based; conditions: Homo sapiens; for inhibition at 16 µg/mL: Becap37, 16 μg/mL compound, 72 h, read-out: IR (cell proliferation inhibition rate); for IC50: Becap37, 72 h
# How it was run: as §1
Compound,inhibition at 16 µg/mL [1] [%],IC50 [1] [µg/mL],inhibition at 16 µg/mL [2] [%],IC50 [2] [µg/mL],IC50 [3] [µg/mL],inhibition at 16 µg/mL [3] [%],inhibition at 16 µg/mL [4] [%],IC50 [4] [µg/mL],inhibition at 16 µg/mL [5] [%],IC50 [5] [µg/mL],IC50 [6] [µg/mL],inhibition at 16 µg/mL [6] [%],inhibition at 16 µg/mL [7] [%],IC50 [7] [µg/mL],IC50 [8] [µg/mL],inhibition at 16 µg/mL [8] [%],IC50 [9] [µg/mL],inhibition at 16 µg/mL [9] [%],inhibition at 16 µg/mL [10] [%],IC50 [10] [µg/mL],further results
CCN(CC)CCCNC(=O)C1C[C@]2(C)[C@H]3CC=C4[C@@H]5CC(C)(C)CC[C@]5(C(=O)OC)CC[C@@]4(C)[C@]3(C)CC[C@H]2C(C)(C)C1=O (some centres unmarked) [BS-OA-035],> 96,1.94,97,3.95,0.68,99.6,99.8,2.96,96.6,1.67,2.67,97.5,99.1,0.61,1.62,100,3.11,98.1,97.2,2.39,IC50 [11]: 5 µg/mL; inhibition at 16 µg/mL [11]: 98.5%; IC50 [12]: 5.34 µg/mL; inhibition at 16 µg/mL [12]: 98.5%; inhibition at 16 µg/mL [13]: 97.1%; IC50 [13]: 2.7 µg/mL; IC50 [14]: 4.89 µg/mL; inhibition at 16 µg/mL [14]: 99.8%; inhibition at 16 µg/mL [15]: 98.9%; IC50 [15]: 2.56 µg/mL; inhibition at 16 µg/mL [16]: 99%; IC50 [16]: 3.64 µg/mL; IC50 [17]: 3.72 µg/mL; inhibition at 16 µg/mL [17]: 98.6%; IC50 [18]: 2.02 µg/mL; inhibition at 16 µg/mL [18]: 97.3%; inhibition at 16 µg/mL [19]: 98%; IC50 [19]: 2.74 µg/mL; inhibition at 16 µg/mL [20]: 98.6%; IC50 [20]: 5.2 µg/mL
COC(=O)[C@]12CCC(C)(C)C[C@H]1C1=CC[C@@H]3[C@@]4(C)CC(C(=O)NCCN5CCCCC5)C(=O)C(C)(C)[C@@H]4CC[C@@]3(C)[C@]1(C)CC2 (some centres unmarked) [BS-OA-004],100,4.89,99.6,6.5,2.41,98.3,100,2.84,97.7,6.15,5.67,98.2,98.3,2.08,8.37,99,9.28,99.4,98.9,7.4,IC50 [11]: 9.91 µg/mL; inhibition at 16 µg/mL [11]: 89.8%; IC50 [12]: 10.1 µg/mL; inhibition at 16 µg/mL [12]: 85.5%; inhibition at 16 µg/mL [13]: 98%; IC50 [13]: 10 µg/mL; IC50 [14]: 8.77 µg/mL; inhibition at 16 µg/mL [14]: 94.1%; inhibition at 16 µg/mL [15]: 98.1%; IC50 [15]: 7.32 µg/mL; inhibition at 16 µg/mL [16]: 97.3%; IC50 [16]: 8.46 µg/mL; IC50 [17]: 9.14 µg/mL; inhibition at 16 µg/mL [17]: 94.9%; IC50 [18]: 7.7 µg/mL; inhibition at 16 µg/mL [18]: 92%; inhibition at 16 µg/mL [19]: 81.2%; IC50 [19]: 8.88 µg/mL; inhibition at 16 µg/mL [20]: 43.9%; IC50 [20]: > 16 µg/mL
